Measurements reported in patent US12077503B2, “Substituted cyclic amides and their use as herbicides” (FMC CORPORATION, priority 2015, dated 2024).

How the values were obtained:
Type in all cases: in vivo
[1] = test system: ducksalad (Heteranthera limosa); assay: Test B flooded paddy test; conditions: Flood, 250 g ai/ha; 0 to 100 scale where 0 is no effect and 100 is complete control; 13 to 15 d
Experimental: (§1) Plant species in the flooded paddy test selected from rice (Oryra sativa), sedge, umbrella (small-flower umbrella sedge, Cyperus difformis), ducksalad (Heteranthera limosa), and barnyardgrass (Echinochloa crus-galli) were grown to the 2-leaf stage for testing. At time of treatment, test pots were flooded to 3 cm above the soil surface, treated by application of test compounds directly to the paddy water, and then maintained at that water depth for the duration of the test. Treated plants and controls were maintained in a greenhouse for 13 to 15 d, after which time all species were compared to controls and visually evaluated. Plant response ratings, summarized in Table B, are based on a scale of 0 to 100 where 0 is no effect and 100 is complete control. A dash (-) response means no test result.

[2] = test system: sedge, umbrella (small-flower umbrella sedge, Cyperus difformis); assay: Test B flooded paddy test; conditions: Flood, 250 g ai/ha; 0 to 100 scale where 0 is no effect and 100 is complete control; 13 to 15 d
Experimental: as §1

[3] = test system: barnyardgrass (Echinochloa crus-galli); assay: Test B flooded paddy test; conditions: Flood, 250 g ai/ha; 0 to 100 scale where 0 is no effect and 100 is complete control; 13 to 15 d
Experimental: as §1

rice (Oryra sativa) = assay: Test B flooded paddy test; conditions: Flood, 250 g ai/ha; 0 to 100 scale where 0 is no effect and 100 is complete control; 13 to 15 d
Experimental: as §1

[4] = test system: pigweed (Amaranthus retroflexus); assay: Test A postemergence; conditions: for Pigweed plant response rating: 125 g ai/ha, postemergence, visual injury rating on 0 to 100 scale (0 no effect, 100 complete control), approx. 10 d; for Plant response rating, Pigweed: Postemergence, 500 g ai/ha, 0 to 100 scale where 0 is no effect and 100 is complete control
Text: (§2) Seeds of plant species selected from barnyardgrass (Echinochloa crus-galli), Kochia (Kochia scoparia), ragweed (common ragweed, Ambrosia elatior), ryegrass, Italian (Italian ryegrass, Lolium multiflorum), crabgrass, large (Digitaria sanguinalis), giant foxtail (Setaria faberii), green foxtail (Setaria viridis), morningglory (Ipomoea spp.), pigweed (Amaranthus retroflexus), velvetleaf (Abutilon theophrasti), wheat (Triticum aestivum), and corn (Zea mays) were planted into a blend of loam soil and sand and treated preemergence with a directed soil spray using test chemicals formulated in anon-phytotoxic solvent mixture which included a surfactant.
(§3) At the same time, plants selected from these crop and weed species and also blackgrass (Alopecurus myosuroides), and Galium (catchweed bedstraw, Galium aparine) were planted in pots containing the same blend of loam soil and sand and treated with postemergence applications of test chemicals formulated in the same manner. Plants ranged in height from 2 to 10 cm and were in the one- to two-leaf stage for the postemergence treatment. Treated plants and untreated controls were maintained in a greenhouse for approximately 10 d, after which time all treated plants were compared to untreated controls and visually evaluated for injury. Plant response ratings, summarized in Table A, are based on a 0 to 100 scale where 0 is no effect and 100 is complete control. A dash (-) response means no test result.

[5] = test system: blackgrass (Alopecurus myosuroides); assay: Test A postemergence; conditions: postemergence; for Blackgrass plant response rating: 125 g ai/ha, visual injury rating on 0 to 100 scale (0 no effect, 100 complete control), approx. 10 d; for Plant response rating, Blackgrass: 500 g ai/ha, 0 to 100 scale, 0 no effect, 100 complete control
Text: as §2, §3

[6] = test system: barnyardgrass (Echinochloa crus-galli); assay: Test A postemergence; conditions: postemergence; for Barnyardgrass plant response rating: 125 g ai/ha, visual injury rating on 0 to 100 scale (0 no effect, 100 complete control), approx. 10 d; for Plant response rating, Barnyardgrass: 500 g ai/ha, 0 to 100 scale, 0 no effect, 100 complete control
Text: as §2, §3

[7] = test system: giant foxtail (Setaria faberii); assay: Test A postemergence; conditions: for Foxtail, Giant plant response rating: 125 g ai/ha, postemergence, visual injury rating on 0 to 100 scale (0 no effect, 100 complete control), approx. 10 d; for Plant response rating, Foxtail, Giant: Postemergence, 500 g ai/ha, 0 to 100 scale where 0 is no effect and 100 is complete control
Text: as §2, §3

[8] = test system: ragweed (common ragweed, Ambrosia elatior); assay: Test A postemergence; conditions: for Ragweed plant response rating: 125 g ai/ha, postemergence, visual injury rating on 0 to 100 scale (0 no effect, 100 complete control), approx. 10 d; for Plant response rating, Ragweed: Postemergence, 500 g ai/ha, 0 to 100 scale where 0 is no effect and 100 is complete control
Text: as §2, §3

corn (Zea mays) = assay: Test A postemergence; conditions: postemergence; for Corn plant response rating: 125 g ai/ha, visual injury rating on 0 to 100 scale (0 no effect, 100 complete control), approx. 10 d; for Plant response rating, Corn: 500 g ai/ha, 0 to 100 scale, 0 no effect, 100 complete control
Text: as §2, §3

Kochia (Kochia scoparia) [9] = assay: Test A postemergence; conditions: for Kochia plant response rating: 125 g ai/ha, postemergence, visual injury rating on 0 to 100 scale (0 no effect, 100 complete control), approx. 10 d; for Plant response rating, Kochia: Postemergence, 500 g ai/ha, 0 to 100 scale where 0 is no effect and 100 is complete control
Text: as §2, §3

[10] = test system: ryegrass, Italian (Italian ryegrass, Lolium multiflorum); assay: Test A postemergence; conditions: for Ryegrass, Italian plant response rating: 125 g ai/ha, postemergence, visual injury rating on 0 to 100 scale (0 no effect, 100 complete control), approx. 10 d; for Plant response rating, Ryegrass, Italian: Postemergence, 500 g ai/ha, 0 to 100 scale where 0 is no effect and 100 is complete control
Text: as §2, §3

[11] = test system: wheat (Triticum aestivum); assay: Test A postemergence; conditions: for Wheat plant response rating: 125 g ai/ha, postemergence, visual injury rating on 0 to 100 scale (0 no effect, 100 complete control), approx. 10 d; for Plant response rating, Wheat: Postemergence, 500 g ai/ha, 0 to 100 scale where 0 is no effect and 100 is complete control
Text: as §2, §3

[12] = test system: Galium (catchweed bedstraw, Galium aparine); assay: Test A postemergence; conditions: for Galium plant response rating: 125 g ai/ha, postemergence, visual injury rating on 0 to 100 scale (0 no effect, 100 complete control), approx. 10 d; for Plant response rating, Galium: Postemergence, 500 g ai/ha, 0 to 100 scale where 0 is no effect and 100 is complete control
Text: as §2, §3

[13] = test system: pigweed (Amaranthus retroflexus); assay: Test A preemergence; conditions: Preemergence; for Plant response rating, Pigweed: 125 g ai/ha, visual injury after approximately 10 d, 0 to 100 scale where 0 is no effect and 100 is complete control; for Pigweed plant response rating (0 to 100 scale, 0 is no effect, 100 is complete control): 500 g ai/ha, visual injury approx. 10 d
Text: as §2, §3

[14] = test system: barnyardgrass (Echinochloa crus-galli); assay: Test A preemergence; conditions: for Plant response rating, Barnyardgrass: 125 g ai/ha, preemergence, 0 to 100 scale (0 no effect, 100 complete control); for Barnyardgrass plant response rating (0 to 100 scale, 0 is no effect, 100 is complete control): Preemergence, 500 g ai/ha, visual injury approx. 10 d
Text: as §2, §3

[15] = test system: giant foxtail (Setaria faberii); assay: Test A preemergence; conditions: for Plant response rating, Foxtail, Giant: 125 g ai/ha, preemergence, 0 to 100 scale (0 no effect, 100 complete control); for Foxtail, Giant plant response rating (0 to 100 scale, 0 is no effect, 100 is complete control): Preemergence, 500 g ai/ha, visual injury approx. 10 d
Text: as §2, §3

[16] = test system: ragweed (common ragweed, Ambrosia elatior); assay: Test A preemergence; conditions: Preemergence; for Plant response rating, Ragweed: 125 g ai/ha, visual injury after approximately 10 d, 0 to 100 scale where 0 is no effect and 100 is complete control; for Ragweed plant response rating (0 to 100 scale, 0 is no effect, 100 is complete control): 500 g ai/ha, visual injury approx. 10 d
Text: as §2, §3

Kochia (Kochia scoparia) [17] = assay: Test A preemergence; conditions: for Plant response rating, Kochia: 125 g ai/ha, preemergence, 0 to 100 scale (0 no effect, 100 complete control); for Kochia plant response rating (0 to 100 scale, 0 is no effect, 100 is complete control): Preemergence, 500 g ai/ha, visual injury approx. 10 d
Text: as §2, §3

[18] = test system: ryegrass, Italian (Italian ryegrass, Lolium multiflorum); assay: Test A preemergence; conditions: Preemergence; for Plant response rating, Ryegrass, Italian: 125 g ai/ha, visual injury after approximately 10 d, 0 to 100 scale where 0 is no effect and 100 is complete control; for Ryegrass, Italian plant response rating (0 to 100 scale, 0 is no effect, 100 is complete control): 500 g ai/ha, visual injury approx. 10 d
Text: as §2, §3

| Structure (SMILES) | Plant response rating, Ducksalad [1] | Plant response rating, Sedge, Umbrella [2] | Plant response rating, Barnyardgrass [3] | Plant response rating, Rice (rice (Oryra sativa)) | Pigweed plant response rating [4] | Plant response rating, Pigweed [4] | Blackgrass plant response rating [5] | Plant response rating, Blackgrass [5] | Barnyardgrass plant response rating [6] | Plant response rating, Barnyardgrass [6] | Foxtail, Giant plant response rating [7] | Plant response rating, Foxtail, Giant [7] | Ragweed plant response rating [8] | Plant response rating, Ragweed [8] | Corn plant response rating (corn (Zea mays)) | Plant response rating, Corn (corn (Zea mays)) | Kochia plant response rating (Kochia (Kochia scoparia) [9]) | Plant response rating, Kochia (Kochia (Kochia scoparia) [9]) | Ryegrass, Italian plant response rating [10] | Plant response rating, Ryegrass, Italian [10] | other results |
| --- | --- | --- | --- | --- | --- | --- | --- | --- | --- | --- | --- | --- | --- | --- | --- | --- | --- | --- | --- | --- | --- |
| CN1CC(c2ccccc2)C(C(=S)Nc2ccccc2F)C1=O (stereo not drawn) [Compound 471] | 70 | 0 | 0 | 0 | 0 | 0 | 0 | 0 | 50 | 70 | 50 | 70 | 0 | 0 | 0 | 0 | 0 | 0 | 0 | 0 | Wheat plant response rating [11]: 0; Plant response rating, Wheat [11]: 0; Galium plant response rating [12]: 0; Plant response rating, Galium [12]: 0; Plant response rating, Pigweed [13]: 0; Pigweed plant response rating (0 to 100 scale, 0 is no effect, 100 is complete control) [13]: 0; Plant response rating, Barnyardgrass [14]: 70; Barnyardgrass plant response rating (0 to 100 scale, 0 is no effect, 100 is complete control) [14]: 90; Plant response rating, Foxtail, Giant [15]: 90; Foxtail, Giant plant response rating (0 to 100 scale, 0 is no effect, 100 is complete control) [15]: 90; Plant response rating, Ragweed [16]: 0; Ragweed plant response rating (0 to 100 scale, 0 is no effect, 100 is complete control) [16]: 0; Plant response rating, Kochia (Kochia (Kochia scoparia) [17]): 0; Kochia plant response rating (0 to 100 scale, 0 is no effect, 100 is complete control) (Kochia (Kochia scoparia) [17]): 0; Plant response rating, Ryegrass, Italian [18]: 0; Ryegrass, Italian plant response rating (0 to 100 scale, 0 is no effect, 100 is complete control) [18]: 0 |
| CN1CC(c2ccc(C(F)(F)F)cc2F)C(C(=O)Nc2ccccc2S(C)(=O)=O)C1=O (stereo not drawn) [Compound 473] | 75 | 0 | 40 | 20 | 50 | 90 | 40 | 60 | 90 | 90 | 70 | 90 | 50 | 50 | 0 | 40 | 40 | 80 | 0 | 40 | Wheat plant response rating [11]: 0; Plant response rating, Wheat [11]: 40; Galium plant response rating [12]: 60; Plant response rating, Galium [12]: 60; Plant response rating, Pigweed [13]: 80; Pigweed plant response rating (0 to 100 scale, 0 is no effect, 100 is complete control) [13]: 90; Plant response rating, Barnyardgrass [14]: 80; Barnyardgrass plant response rating (0 to 100 scale, 0 is no effect, 100 is complete control) [14]: 100; Plant response rating, Foxtail, Giant [15]: 90; Foxtail, Giant plant response rating (0 to 100 scale, 0 is no effect, 100 is complete control) [15]: 100; Plant response rating, Ragweed [16]: 20; Ragweed plant response rating (0 to 100 scale, 0 is no effect, 100 is complete control) [16]: 70; Plant response rating, Kochia (Kochia (Kochia scoparia) [17]): 80; Kochia plant response rating (0 to 100 scale, 0 is no effect, 100 is complete control) (Kochia (Kochia scoparia) [17]): 80; Plant response rating, Ryegrass, Italian [18]: 0; Ryegrass, Italian plant response rating (0 to 100 scale, 0 is no effect, 100 is complete control) [18]: 90 |
